As a reminder, the IC50 is the midpoint of a concentration-inhibition curve. As usually defined, the melting point is the temperature of the solid-liquid transition.

For one data set, the target named is T1, S. aureus, PDF enzyme (Staphylococcus aureus, UniProt P68826).
T1 sequence (P68826 1-183): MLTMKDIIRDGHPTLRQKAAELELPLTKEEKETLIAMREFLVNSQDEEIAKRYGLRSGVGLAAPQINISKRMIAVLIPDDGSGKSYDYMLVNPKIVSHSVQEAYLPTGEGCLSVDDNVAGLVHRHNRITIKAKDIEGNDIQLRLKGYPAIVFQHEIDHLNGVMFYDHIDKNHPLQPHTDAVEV
Kind of data set: Bacterial peptide deformylase (PDF) assay, colorimetric cell free, f-Met-Ala substrate, TNBS detection at 420 nm. The format is biochemical. Conditions: means of three experiments; 30 minutes at room temperature, pH 7.2; read-out: PDF enzyme inhibitory activity IC50, S. aureus, PDF enzyme. The source says:
To find inhibitors of Peptide Deformylase (PDF), a colorimetric cell free assay for measuring the enzymatic activity of PDF has been adapted to the microtiter plate format (96 wells). The assay comprises three components, purified PDF, f-Met-Ala as substrate and TNBS as the detecting agent of primary amino groups. The resulting TNP-NH-Met-Ala sulfite complex can be detected at 420 nm. PDF enzymes, containing Fe^2+ as the native metal, are purified and are stabilized by the addition of tris(2-carboxyethyl)phosphine (TCEP).
(§1) The IC50 value of a compound of the invention as a bacterial PDF inhibitor was determined using the following assay.
(§2) Assay buffer: 0.1M MOPS pH was adjusted to 7.2 with NaOH, containing 0.25 M NaCl, 100 μg/mL catalase and 1 mg/mL BSA.
S. aureus (15 mg/ml) 10 μl+990 μl Assay buffer, 0.3 μl per ml enzyme mix.
(§3) Substrate mix: 10 mM f-Met-Ala was made up from 200 mM f-Met-Ala in methanol with assay buffer.
(§4) TNBS solution: Freshly dilute 1 M TNBS stock solution diluted 1:10 with water.
(§5) Buffer C, 0.5 M borate buffer adjusted to pH 9.5 with NaOH.
(§6) Buffer D: 0.2 ml of freshly prepared 0.5 M Na2SO3 was mixed with 9.8 mL of 0.5M NaH2PO4.
(§7) Inhibitor solution: 2 mM Sodium 4-(hydroxymercurio) benzoate in assay buffer.
(§8) Compound mix: Compound of formula I dissolved in DMSO in a 10 mg/mL stock solution. Further dilutions were made in DMSO in the concentration range between 0.05 to 100 mM.
The assay was performed in a 96 Microtiter plate containing test compound. To each well containing test compound mix was added 75 microliter of enzyme mix followed by the addition of 25 microliter of substrate mix. The resulting mix was incubated for 30 minutes at room temperature with shaking. TNBS solution (50 microliter/well) was added and the resulting mixture was incubated for 15 minutes under shaking. Buffer C was then added (20 microliter/well). After incubating at room temperature for 15 minutes under shaking, buffer D was added (50 microliter/well). The optical […] was then measured at 420 nm, thereby determining the IC50 value.

The target in the next data set is E. coli, PDF enzyme (Escherichia coli, UniProt P0A6K3). Briefly: Bacterial peptide deformylase (PDF) assay, colorimetric cell free, f-Met-Ala substrate, TNBS detection at 420 nm. The format is biochemical. The protocol: The assay comprises three components, purified PDF, f-Met-Ala as substrate and TNBS as the detecting agent of primary amino groups. The resulting TNP-NH-Met-Ala sulfite complex can be detected at 420 nm. PDF enzymes, containing Fe^2+ as the native metal, are purified and are stabilized by the addition of tris(2-carboxyethyl)phosphine (TCEP).
as §1, §2
E. coli enzyme (2.5 mg/ml) 10 μl+290 μl Assay buffer, 1 μl per ml enzyme mix.
as §3, §4, §5, §6, §7, §8
The assay was performed in a 96 Microtiter plate containing test compound. […] The optical diffraction was then measured at 420 nm, thereby determining the IC50 value.

E. coli, PDF enzyme, sequence (P0A6K3 whole entry): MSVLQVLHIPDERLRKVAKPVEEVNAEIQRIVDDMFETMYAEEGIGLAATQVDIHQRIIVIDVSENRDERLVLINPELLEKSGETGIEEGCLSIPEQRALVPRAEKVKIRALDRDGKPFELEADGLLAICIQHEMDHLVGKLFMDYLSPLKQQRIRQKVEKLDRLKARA

On to `O=C(NO)c1cc(CSc2ccccc2Br)on1` [Example 6, 5-(2-Bromo-phenylsulfanylmethyl)-isoxazole-3-carboxylic acid hydroxyamide], for which the melting point is 135 to 136 °C (dec.). Moreover, the IC50 at S. aureus, PDF enzyme was found to be 4.9 µM.

`O=C(NO)c1cc(CSc2ccc(C(F)(F)F)cc2)on1` [Example 13, 5-(4-Trifluoromethyl-phenylsulfanylmethyl)-isoxazole-3-carboxylic acid hydroxyamide] returned a melting point of 129 °C. For the same compound, the IC50 at S. aureus, PDF enzyme came to 8.7 µM.

Take `COc1cccc(S(=O)(=O)Cc2cc(C(=O)NO)no2)c1` [Example 37, 5-(3-Methoxy-benzenesulfonylmethyl)-isoxazole-3-carboxylic acid hydroxyamide]: the 50% inhibitory concentration (IC50) at S. aureus, PDF enzyme came to 6.5 µM.

On to `O=C(NO)c1cc(CSc2nccc(-c3cccs3)n2)on1`, for which the melting point was 165 to 168 °C (dec.).

As to `O=C(NO)c1cc(CSc2ccccc2OC(F)(F)F)on1`, the melting point was 108 to 109 °C (dec.).

For `O=C(NO)c1cc(CSCc2cc3ccccc3s2)on1` [Example 16, 5-(Benzothiophen-2-ylmethylsulfanylmethyl)-isoxazole-3-carboxylic acid hydroxyamide], the melting point was 143 to 145 °C (dec.). On S. aureus, PDF enzyme, the IC50 was found to be 12.7 µM.

For `O=C(NO)c1cc(CSc2ccc(Cl)c(Cl)c2)on1` [Example 5, 5-(3,4-Dichloro-phenylsulfanylmethyl)-isoxazole-3-carboxylic acid hydroxyamide], the melting point is 99 to 102 °C (dec.). For the same compound, the IC50 on S. aureus, PDF enzyme turned out to be 2 µM.

Regarding `O=C(NO)c1cc(CSc2cccc(Br)c2)on1` [Example 7, 5-(3-Bromo-phenylsulfanylmethyl)-isoxazole-3-carboxylic acid hydroxyamide], the melting point was in the range of 104 to 105 °C. The IC50 on S. aureus, PDF enzyme was found to be 2 µM.

Take `Cc1ccc(SCc2cc(C(=O)NO)no2)cc1` [Example 1, 5-(4-Toluenesulfanylmethyl)-isoxazole-3-carboxylic acid hydroxyamide]: the melting point is 94 to 96 °C (dec.). The IC50 at S. aureus, PDF enzyme worked out at 4 µM.

With `O=C(NO)c1cc(CSc2ccc(Cl)cc2)on1` [Example 2, 5-(4-Chloro-phenylsulfanylmethyl)-isoxazole-3-carboxylic acid hydroxyamide], the IC50 at S. aureus, PDF enzyme was 1.3 µM.

As for `O=C(NO)c1cc(CSc2ccccc2C(F)(F)F)on1` [Example 14, 5-(2-Trifluoromethyl-phenylsulfanylmethyl)-isoxazole-3-carboxylic acid hydroxyamide], the melting point is 140 to 144 °C (dec.). Moreover, the IC50 on S. aureus, PDF enzyme turned out to be 9.3 µM.

On to `Cc1ccc([S+]([O-])Cc2cc(C(=O)NO)no2)cc1` (stereo not shown) [Example 38, 5-(4-Toluenesulfinylmethyl)-isoxazole-3-carboxylic acid hydroxyamide], for which the IC50 on S. aureus, PDF enzyme was 0.9 µM.

Turning to `O=C(NO)c1cc(CSc2ccc(F)cc2)on1` [Example 12, 5-(4-Fluoro-phenylsulfanylmethyl)-isoxazole-3-carboxylic acid hydroxyamide], the melting point is 98 to 99 °C (dec.). In addition, the IC50 on S. aureus, PDF enzyme was found to be 1.5 µM.

As to `O=C(NO)c1cc(CSc2ccccc2Cl)on1` [Example 4, 5-(2-Chloro-phenylsulfanylmethyl)-isoxazole-3-carboxylic acid hydroxyamide], the melting point is 141 to 143 °C (dec.). Moreover, at S. aureus, PDF enzyme, the IC50 was 3.8 µM.

`CC(C)c1ccccc1SCc1cc(C(=O)NO)no1` [Example 8, 5-(2-Isopropyl-phenylsulfanylmethyl)-isoxazole-3-carboxylic acid hydroxyamide]: the melting point was 121 to 123 °C (dec.). Also, the IC50 at S. aureus, PDF enzyme turned out to be 7.6 µM.

`Cc1cc(C)c(SCc2cc(C(=O)NO)no2)c(C)c1` [Example 9, 5-(2,4,6-Trimethyl-phenylsulfanylmethyl)-isoxazole-3-carboxylic acid hydroxyamide]: the melting point is 133 to 135 °C (dec.). In addition, on S. aureus, PDF enzyme, the IC50 was 37.7 µM.

In turn, `COc1cccc(SCc2cc(C(=O)NO)no2)c1` [Example 11, 5-(3-Methoxy-phenylsulfanylmethyl)-isoxazole-3-carboxylic acid hydroxyamide] gave a melting point of 116 °C. Moreover, the IC50 on S. aureus, PDF enzyme amounted to 2.2 µM.

As to `Cc1ccc(S(=O)(=O)Cc2cc(C(=O)NO)no2)cc1` [Example 33, 5-(4-Toluenesulfonylmethyl)-isoxazole-3-carboxylic acid hydroxyamide], the IC50 on S. aureus, PDF enzyme worked out at 1.4 µM; at E. coli, PDF enzyme, 11.5 µM.

Take `O=C(NO)c1cc(CSc2cccc(Cl)c2)on1` [Example 3, 5-(3-Chloro-phenylsulfanylmethyl)-isoxazole-3-carboxylic acid hydroxyamide]: the melting point is 105 to 107 °C (dec.). Moreover, the IC50 on S. aureus, PDF enzyme stood at 2.3 µM.

`CC(c1cc(C(=O)NO)no1)S(=O)(=O)c1ccc(Cl)cc1` (stereo not shown): the melting point is 162 °C (dec.).

For the compound `O=C(NO)c1cc(CS(=O)(=O)c2ccc(Cl)cc2)on1` [Example 34, 5-(4-Chloro-benzenesulfonylmethyl)-isoxazole-3-carboxylic acid hydroxyamide], at S. aureus, PDF enzyme, the IC50 is 0.8 µM.

Turning to `O=C(NO)c1cc(CS(=O)(=O)c2cccc(Cl)c2)on1` [Example 35, 5-(3-Chloro-benzenesulfonylmethyl)-isoxazole-3-carboxylic acid hydroxyamide], the IC50 at S. aureus, PDF enzyme amounted to 1.7 µM.

The compound `O=C(NO)c1cc(CSCc2cccc(C(F)(F)F)c2)on1` [Example 17, 5-(3-Trifluoromethyl-benzylsulfanylmethyl)-isoxazole-3-carboxylic acid hydroxyamide] registered a melting point of 109 to 110 °C. In addition, the IC50 on S. aureus, PDF enzyme was 2.2 µM.

`CC(C)c1ccccc1S(=O)(=O)Cc1cc(C(=O)NO)no1` [Example 36, 5-(2-Isopropyl-benzenesulfonylmethyl)-isoxazole-3-carboxylic acid hydroxyamide]: the melting point is 170 °C (dec.). In addition, at S. aureus, PDF enzyme, the IC50 worked out at 3.4 µM.
